Test system: not listed separately
Assay: Cytotoxicity against human kidney cells
Type: cell-based
Details: not given

CCCC(=O)C1(c2ccccc2)CCN(C(=O)c2ccc3[nH]ccc3c2)CC1 and O=C(c1ccc2[nH]ccc2c1)N1CCN(C2c3ccccc3-c3ccccc32)CC1 cannot be ordered by Activity: 23 to 48 µM for the first, 35 to 44 µM for the second.

In the case of CC(C)=CCC/C(C)=C/CNC(=O)CCc1c[nH]c2ccccc12, the Activity is reported as 41 to 62 µM.

Molecular target: T1, Enoyl-[acyl-carrier-protein] reductase [NADH] (Mycobacterium tuberculosis) (UniProt P9WGR1)
T1 sequence (whole entry): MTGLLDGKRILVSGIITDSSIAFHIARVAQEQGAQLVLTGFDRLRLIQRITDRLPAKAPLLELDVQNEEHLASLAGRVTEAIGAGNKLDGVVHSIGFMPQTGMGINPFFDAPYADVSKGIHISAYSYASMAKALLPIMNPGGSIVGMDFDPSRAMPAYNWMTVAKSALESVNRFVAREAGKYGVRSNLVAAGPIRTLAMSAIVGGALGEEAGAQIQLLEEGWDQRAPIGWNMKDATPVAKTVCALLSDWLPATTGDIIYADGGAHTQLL
Assay: Inhibition of Mycobacterium tuberculosis InhA using octenoyl-CoA as substrate assessed as decrease in NADH consumption at 40 uM measured for 10 mins relative to control
Details: not given

First: FC(F)(F)c1ccnc(-n2cc(-c3cnc4ccccc4n3)cn2)n1
Second: FC(F)(F)c1ccnc(-n2cc(-c3ccc4ccccc4n3)cn2)n1
The inhibition of the first is higher: 36% for the first, 16% for the second.

Compared with O=C(CCCc1c[nH]c2ccccc12)NCc1ccc2c(c1)OCO2, COc1cc(CCNC(=O)CCCc2c[nH]c3ccccc23)cc(OC)c1 is lower in inhibition: 37% for the first, 21% for the second.

Compared with CN(Cc1ccco1)C(=O)c1ccc(-c2ccccc2)cc1, CN(Cc1ccccc1)C(=O)c1ccc(-c2ccccc2)cc1 is higher in inhibition: 29% for the first, 44% for the second.

Compared with O=C(c1ccc2[nH]ccc2c1)N1CCN(Cc2ccccc2)CC1, O=C(c1ccc2[nH]ccc2c1)N1CCN(c2ccccc2)CC1 is higher in inhibition: 62% for the first, 73% for the second.

First: O=C(Cc1ccccc1F)NCc1cccc(Cl)c1
Second: O=C(Cc1ccccc1F)NCCc1cccc(Cl)c1
The inhibition of the first is lower: 75% for the first, 84% for the second.

Going from CS(=O)(=O)c1ccc(-c2cnn(-c3nccc(C(F)(F)F)n3)c2)c([N+](=O)[O-])c1 to O=[N+]([O-])c1cc(Cl)ccc1-c1cnn(-c2nccc(C(F)(F)F)n2)c1, the inhibition rises from 10% to 82%.

Going from O=C(c1ccc(F)cc1)C1CCN(C(=O)c2ccc3[nH]ccc3c2)CC1 to O=C(c1ccc2[nH]ccc2c1)N1CCN(c2ccc(F)cc2)CC1, the inhibition falls from 84% to 53%.

Going from FC(F)(F)c1ccnc(-n2cc(-c3ccnc4ccccc34)cn2)n1 to FC(F)(F)c1ccnc(-n2cc(-c3nc4ccccc4[nH]3)cn2)n1, the inhibition rises from 9% to 36%.

Going from COc1ccc([N+](=O)[O-])c(-c2cnn(-c3nccc(C(F)(F)F)n3)c2)c1 to O=[N+]([O-])c1ccccc1-c1cnn(-c2nccc(C(F)(F)F)n2)c1, the inhibition falls from 17% to 14%.

O=C(c1ccc(-c2ccccc2)cc1)N1CCN(Cc2ccccc2)CC1 and O=C(c1ccc(-c2ccccc2)cc1)N1CCc2ccccc2C1 are the same in inhibition: 27% for the first, 27% for the second.

Compared with CC1CN(C(=O)c2ccc3[nH]ccc3c2)CC(C)O1 (stereo unspecified), O=C(c1ccc2[nH]ccc2c1)N1CCc2ccccc2C1 is higher in inhibition: 47% for the first, 86% for the second.

Compared with Cc1c(C)c(C)c(C(=O)C2CCN(C(=O)c3ccc4[nH]ccc4c3)CC2)c(C)c1C, COc1cc2c(cc1OC)CN(C(=O)c1ccc3[nH]ccc3c1)CC2 is higher in inhibition: 78% for the first, 86% for the second.

Going from FC(F)(F)c1ccnc(-n2cc(-c3ccc(Cl)cc3)cn2)n1 to COc1ccc(-c2cnn(-c3nccc(C(F)(F)F)n3)c2)cc1, the inhibition falls from 8% to 4%.

First: CC(C)=CCC/C(C)=C/CNC(=O)CCCc1c[nH]c2ccccc12
Second: CC(C)=CCC/C(C)=C/CNC(=O)CCc1c[nH]c2ccccc12
The inhibition of the first is lower: 51% for the first, 73% for the second.

Compared with FC(F)(F)c1ccnc(-n2cc(-c3ccncn3)cn2)n1, FC(F)(F)c1ccnc(-n2cc(-c3cnccn3)cn2)n1 is lower in inhibition: 36% for the first, 9% for the second.

First: O=C(c1ccc2[nH]ccc2c1)N1CCN(Cc2ccc3c(c2)OCO3)CC1
Second: COc1ccccc1N1CCN(C(=O)c2ccc3[nH]ccc3c2)CC1
The inhibition of the first is lower: 51% for the first, 78% for the second.

First: CC(C)C1C2CCC(NC(=O)CCCc3c[nH]c4ccccc34)C1C2 (stereo unspecified)
Second: CC(C)C1C2CCC(NC(=O)CCc3c[nH]c4ccccc34)C1C2 (stereo unspecified)
The inhibition of the first is higher: 34% for the first, 28% for the second.

Going from O=C(Cc1ccccc1F)NCCC1=CCCCC1 to O=C(Cc1ccccc1F)NCCO, the inhibition falls from 56% to 34%.

Compared with O=C(Cc1ccccc1F)NCCC(c1ccccc1)c1ccccc1, O=C(Cc1ccccc1F)NCCc1ccccc1 is lower in inhibition: 63% for the first, 45% for the second.

First: O=C(c1ccc2[nH]ccc2c1)N1CCN(C(c2ccccc2)c2ccccc2)CC1
Second: O=C(c1ccc2[nH]ccc2c1)N1CCN(c2ccccn2)CC1
The inhibition of the first is higher: 106% for the first, 36% for the second.

First: COc1ccc(CCNC(=O)Cc2ccccc2F)cc1
Second: O=C(Cc1ccccc1F)NCCc1c[nH]c2ccccc12
The inhibition of the first is higher: 63% for the first, 47% for the second.

First: O=C(CCCc1c[nH]c2ccccc12)Nc1ccc(N2CCCC2)cc1
Second: O=C(Nc1ccc2ccccc2n1)c1ccc2[nH]ccc2c1
The inhibition of the first is higher: 28% for the first, 16% for the second.

O=C(c1cccnc1)c1ccc2[nH]ccc2c1 and FC(F)(F)c1ccnc(-n2cc(-c3cccnc3)cn2)n1 are the same in inhibition: 36% for the first, 36% for the second.

With CN(CCc1ccccc1)C(=O)c1ccc(-c2ccccc2)cc1 the inhibition was 32%.

Test system: not listed separately
Assay: Cytotoxicity against mouse embryonic stem cells
Type: cell-based
Details: embryonic stem cell

CCCC(=O)C1(c2ccccc2)CCN(C(=O)c2ccc3[nH]ccc3c2)CC1 and O=C(c1ccc2[nH]ccc2c1)N1CCN(C2c3ccccc3-c3ccccc32)CC1 cannot be ordered by Activity: 46 to 50 µM for the first, 46 to 52 µM for the second.

For CC(C)=CCC/C(C)=C/CNC(=O)CCc1c[nH]c2ccccc12, the Activity was 11 to 90 µM.

Test system: not listed separately
Assay: Cytotoxicity against human lung cells
Type: cell-based
Details: not given

CCCC(=O)C1(c2ccccc2)CCN(C(=O)c2ccc3[nH]ccc3c2)CC1 and O=C(c1ccc2[nH]ccc2c1)N1CCN(C2c3ccccc3-c3ccccc32)CC1 cannot be ordered by Activity: 33 to 50 µM for the first, 24 to 48 µM for the second.

In the case of CC(C)=CCC/C(C)=C/CNC(=O)CCc1c[nH]c2ccccc12, the Activity is reported as 11 to 48 µM.

Source: ChEMBL document CHEMBL3879896
